Results as given in patent US20240391900A1, “RIP1 KINASE INHIBITOR AND USE THEREOF” (SIRONAX (BEIJING) CO., LTD., priority 2021, published 2024).

Columns and labels:
[1] = test system: HT-29 human colon cancer cells; experiment: In vitro biological activity assay: inhibition of TNFα/SmacM/Z_VAD FMK-induced programmed necrosis, CellTiter-Glo viability; assay type: cell-based; details: HT-29 cells, necrosis induced with TNF-α 100 ng/mL, SmacM 100 nM, Z_VAD-FMK 10 μM, overnight, cell viability by chemiluminescence
Method: In order to verify the inhibitory effect of the compounds of the present disclosure on programmed necrosis at the cellular level, a type of cells closely related to the RIP1 pathway, namely HT-29 human colon cancer cells, were selected. The used activation mode is a combination of tumor necrosis factor (TNFα), cysteine aspartate activator mimic (SmacM) and pan-caspase inhibitor Z_VAD FMK, and the cell viability was calculated by detecting chemiluminescence values, thus obtaining the biological activity of the compound inhibiting the programmed necrosis of cells.
Cell line: HT-29 (ATCC® HTB-38™)
• 2.1. The Growth Status of HT-29 Cells was Regularly Checked to Ensure their Normal Growth. • 2.2. McCOY's 5A culture medium containing 10% FBS was preheated in a 37° C. water bath for 30 minutes. When the culture medium was ready for use, the cell passage and inoculation was performed in a Class II safety cabinet with aseptic technique. • 2.3. In a T75 culture flask, when the growth density of cells reached the abundance of approximately 80%, the culture medium was aspirated and cells were washed twice with pre-warmed PBS. • 2.4. 2-3 mL of trypsin (Gibco, catalog number 25200-056) was added and the T75 culture flask was transferred to a 37° C. incubator. • 2.5. After 3-5 minutes, the side of the culture flask was tapped and examined under a microscope for detachment of the cells to the flask. If necessary, the cells were placed back into the incubator to wait for another 5-10 minutes until 85% of the cells were detached from each other. • 2.6. 6-9 mL of complete cell culture medium was quickly added to terminate the trypsin reaction, and then the cells were transferred to a sterile 15 mL centrifuge tube. The cells were pelleted by centrifugation at 300 g for 5-7 minutes in a centrifuge, and then the supernatant was decanted. • 2.7. The cells were resuspended in 10 mL of fresh cell culture medium and the cells were counted by using a hemocytometer. • 2.8. 3,000 cells contained in 100 μL were inoculated into each well of a sterile 96-well cell culture plate (Corning 3903) and cultured overnight at 37° C. under 5% CO2.
• 3.1. All batches of compounds were dissolved in dimethyl sulfoxide (DMSO) to prepare a 20 mM stock. • 3.2. 3 μL of 20 mM stock of each compound was added to 27 μL of DMSO and mixed thoroughly, and then diluted at a dilution ratio of […] (20 μL compound+40 μL DMSO) until the 10-12 points ended. After the compounds were diluted, they were set aside for use. • 3.3. The cell culture plate was taken out from the incubator, washed once with PBS, and replaced with a fresh culture medium free of serum. A mixture of TNF-α (100 ng/mL), SMAC mimic (SmacM, 100 nM) and Z_VAD-FMK (10 μM) was added to induce the programmed necrosis in HT-29 cells. • 3.4. The compound dilution plate was prepared, 0.5 μL of the diluted compound was added to the corresponding 96-well plate, and mixed gently. Two duplicate wells were prepared for each compound. • 3.5. The treated 96-well plate to which the compounds had been added was placed back into the 37° C. incubator containing 5% CO2 and incubated overnight.
The luminescence cell viability detection kit was used to calculate the activity of the compound by measuring the ATP content in viable cells. • 4.1. The CellTiter-Glo® buffer and dry powdered substrate were equilibrated to room temperature before use. • 4.2. The CellTiter-Glo® substrate was resuspended with Cell Titer-Glo® buffer, then homogeneously mixed by gently vortexing. • 4.3. The cell culture plate was taken out and equilibrated at room temperature for 10 minutes (usually not suitable if more than 30 minutes). • 4.4. 20 μL of enzyme/substrate mixture was added into the 96-well assay plate with a multi-channel pipettor. • 4.5. The 96-well assay plate was placed on a shaker and the content was mixed for 2-3 minutes to promote the cell lysis. • 4.6. […]

[2] = Rapid brain distribution assay (LC-MS/MS, brain tissue/plasma ratio); assay type: in vivo; details: mouse, ip, CD1 mice, intraperitoneal, grouped compounds, brain tissue and plasma taken one hour after administration, read-out: B/P
Method: The contents in plasma and tissue samples were measured by LC-MS/MS to obtain the ratio of the concentration in the brain tissue sample to that in the plasma sample, and compounds with blood-brain penetration could be quickly screened.
• 3.1. A group of compounds (usually 3-4 compounds, the molecular weight difference between each other was greater than 5), weighing 1-2 mg of each compound, were added into the same 4 mL weighing bottle. • 3.2. A mixed solvent of 10% DMSO+20% polyethylene glycol-15-hydroxystearate+70% H2O was used to prepare each group to a volume of 1.5 mL-2 mL. • 3.3. The mixture was ultrasonically vortexed until a homogeneous solution was obtained for intraperitioneal administration.
• 4.1. Three CD1 mice were prepared for each group and weighed. • 4.2. The administration volume was 10 mL/kg, and the mice were administered intraperitoneally. • 4.3. Timing was started after administration, and plasma samples and brain tissue samples were taken one hour later. • 4.4. The brain tissue sample was weighed, and then 4 fold volume of physiological saline was added. The resulting mixture was homogenized, and frozen at −20° C. until analysis.
• 5.1. The exact molecular weight of a compound was found from the compound information table. • 5.2. The corresponding parent ions and fragment ions were found, and the mass spectrometry condition and the liquid phase (chromatography) method were optimized to find the appropriate condition and method.
• 6.1. Plasma sample (5-fold dilution): 10 μL of the plasma sample was taken, and 40 μL of the blank plasma sample and 50 μL of the corresponding blank tissue sample were added. • 6.2 Tissue sample processing: 50 μL of the tissue sample (brain, kidney, liver and the like) was taken, and 50 μL of the blank plasma sample was added. • 6.3. The above tissue sample and the diluted plasma sample were taken, and 500 μL of the internal standard solution was added to precipitate the protein. The resulting mixture was vortexed for 2 minutes, stored by freezing at −20° C. for 1 hour and centrifuged at 3800 rpm for 15 minutes at 4° C. The supernatant was taken, 5-fold diluted with 50% MeOH, and then vortexed for 2 minutes, ready for measurement.
The sample was detected by using an appropriate LC-MS/MS method.
Distribution ratio of tissue/plasma=(peak area of compound in tissue/peak area of internal standard)/(peak area of compound in plasma/peak area of internal standard)

[3] = in vivo; cited from earlier work
mouse L929 cells = details: read-out: IC50, blocking programmed necrosis; cited from earlier work
human U937 cells = details: read-out: IC50, blocking programmed necrosis; cited from earlier work
TNF-induced shock model = details: mice; cited from earlier work

`Cc1ncc(C#Cc2cnc(N)nc2)cc1-n1cc2c(n1)C(c1ccccc1)CC2` (stereo not shown) [Compound 42, 5-((6-methyl-5-(6-phenyl-5,6-dihydrocyclopenta[c]pyrazol-2 (4H)-yl)pyridin-3-yl)ethynyl)pyrimidin-2-amine] gave an EC50 [1] of at most 100 nM and a Kp at 1 h [2] of 2.45.
Work on `Cn1cc(C#Cc2cnc(N)nc2)cc(-n2cc3c(n2)C(c2ccccc2)CC3)c1=O` (stereo not shown) [Compound 44] yielded an EC50 [1] of at most 100 nM and a Kp at 1 h [2] of 3.25.
Work on `Nc1ncc(C#Cc2cncc(-n3cc4c(n3)C(c3cccc(F)c3)CC4)c2)cn1` (stereo not shown) [Compound 45] yielded an EC50 [1] of at most 100 nM and a Kp at 1 h [2] of 2.28.
`Nc1ncc(C#Cc2cncc(-n3cc4c(n3)C(c3ccccc3)OC4)c2)cn1` (stereo not shown) [Compound 51, 5-(5-(6-phenyl-4H-furo[3,4-c]pyrazol-2 (6H)-yl)pyridin-3-ethynyl)pyrimidin-2-amine] gave an EC50 [1] of at most 100 nM and a Kp at 1 h [2] of 2.46.
With `Nc1ncc(C#Cc2cncc(-n3nc4n(c3=O)CCC4c3ccccc3)c2)cn1` (stereo not shown) [Compound 52, 2-(5-((2-aminopyrimidin-5-yl)ethynyl)pyridin-3-yl)-7-phenyl-2,5,6,7-tetrahydro-3H-pyrrolo[2,1-c][1,2,4]triazole-3-one] the EC50 [1] was at most 100 nM and the Kp at 1 h [2] was 1.1.
In the case of `Nc1ncc(C#Cc2cncc(-n3nc4c(n3)C(c3ccccc3)CC4)c2)cn1` (stereo not shown) [Compound 54, 5-((5-(4-phenyl-5,6-dihydrocyclopenta[d][1,2,3]triazol-2 (4H)-yl)pyridine-3-yl)ethynyl)pyrimidin-2-amine], the EC50 [1] is reported as at most 100 nM and the Kp at 1 h [2] is reported as 1.44.
`Nc1ncc(C#Cc2cncc(-n3nc4c(n3)[C@H](c3ccccc3)CC4)c2)cn1` [Compound 55, (S)-5-((5-(4-phenyl-5,6-dihydrocyclopenta[d][1,2,3]triazol-2 (4H)-yl)pyridin-3-yl)ethynyl)pyrimidin-2-amine] showed an EC50 [1] of at most 100 nM and a Kp at 1 h [2] of 2.61.
In the case of `Nc1ncc(C#Cc2cncc(-n3nc4c(n3)[C@@H](c3ccccc3)CC4)c2)cn1` [Compound 56, (R)-5-((5-(4-phenyl-5,6-dihydrocyclopenta[d][1,2,3]triazol-2 (4H)-yl)pyridin-3-yl)ethynyl)pyrimidin-2-amine], the EC50 [1] is reported as over 1000 nM and the Kp at 1 h [2] is reported as 1.2.
`Cn1c(-n2nc3c(n2)C(c2ccccc2)CC3)cc(C#Cc2cnc(N)nc2)cc1=O` (stereo not shown) [Compound 57, 4-((2-aminopyrimidin-5-yl)ethynyl)-1-methyl-6-(4-phenyl-5,6-dihydrocyclopenta[d][1,2,3]triazol-2 (4H)-yl)pyridine-2 (1H)-one] showed an EC50 [1] of at most 100 nM and a Kp at 1 h [2] of 2.16.
For `Cc1ncc(C#Cc2cnc(N)nc2)cc1-n1nc2c(n1)C(c1ccccc1)CC2` (stereo not shown) [Compound 58, 5-((6-methyl-5-(4-phenyl-5,6-dihydrocyclopenta[d][1,2,3]triazol-2 (4H)-yl)pyridin-3-yl)ethynyl)pyrimidin-2-amine], the EC50 [1] was at most 100 nM and the Kp at 1 h [2] was 2.93.
With `Nc1ncc(CCc2cncc(-n3cc4c(n3)[C@H](c3ccccc3)CC4)c2)cn1` [Compound 61, (S)-5-(2-(5-(6-phenyl-5,6-dihydrocyclopenta[c]pyrazol-2 (4H)-yl)pyridin-3-yl)ethyl)pyrimidin-2-amine] the EC50 [1] was at most 100 nM and the Kp at 1 h [2] was 1.17.
With `Cn1c(-n2nc3c(n2)C(c2cccnc2)CC3)cc(C#Cc2cnc(N)nc2)cc1=O` (stereo not shown) [Compound 62] the EC50 [1] was at most 100 nM and the Kp at 1 h [2] was 0.388.
In the case of `Nc1ncc(C#Cc2cncc(-n3nc4c(n3)C(c3cc(F)cc(F)c3)CC4)c2)cn1` (stereo not shown) [Compound 63, 5-((5-(4-(3,5-difluorophenyl)-5,6-dihydrocyclopenta[d][1,2,3]triazol-2 (4H)-yl)pyridin-3-yl)ethynyl)pyrimidin-2-amine], the EC50 [1] is reported as at most 100 nM and the Kp at 1 h [2] is reported as 3.77.
With `Cn1c(-n2nc3c(n2)C(C2CCCCC2)CC3)cc(C#Cc2cnc(N)nc2)cc1=O` (stereo not shown) [Compound 65, 4-((2-aminopyrimidin-5-yl)ethynyl)-6-(4-cyclohexyl-5,6-dihydrocyclopenta[d][1,2,3]triazol-2 (4H)-yl)-1-methylpyridin-2 (1H)-one] the EC50 [1] was at most 100 nM and the Kp at 1 h [2] was 1.12.
For `Cc1ncc(C#Cc2cn[nH]c2)cc1-n1nc2c(n1)C(c1ccccc1)CC2` (stereo not shown) [Compound 66, 2-(5-((1H-pyrazole-4-yl)ethynyl)-2-methylpyridin-3-yl)-4-phenyl-2,4,5,6-tetrahydrocyclopenta[d][1,2,3]triazole], the EC50 [1] was at most 100 nM and the Kp at 1 h [2] was 3.62.
For `CN1C(=O)[C@@H](NC(=O)c2nnc(Cc3ccccc3)[nH]2)COc2ccccc21` [GSK2982772], the brain tissue distribution [3] is given as “low brain tissue distribution”.
For `CC(C)(C)C(=O)N1N=CC[C@H]1c1ccccc1` [GSK′963], the IC50 (mouse L929 cells) is given as 1 nM, the IC50 (human U937 cells) is given as 4 nM and the effect on hypothermia (TNF-induced shock model) is given as “effectively inhibit hypothermia”.
